In patent US20190247361A1, “OXYTOCIN ANTAGONIST DOSING REGIMENS FOR PROMOTING EMBRYO IMPLANTATION AND PREVENTING MISCARRIAGE” (ObsEva S.A., priority 2016, published 2019):

What was measured:
CYP2D6 = CYP2D6 (Homo sapiens, UniProt P10635); experiment: metabolism by CYP2D6 isoform; assay type: in vitro ADME; conditions: for Compound Remaining (% of compound present at t = 0 min): 5 μM
Protocol: (§1) At five time points over the course of a 45 minute experiment, the compounds were analyzed by LC-MS/MS. The percentage of each compound remaining at each time point, along with the metabolic half-lives of each compound in the presence of each cytochrome P450 isoform, are indicated in Tables 10-12, below.

CYP2C19 = CYP2C19 (Homo sapiens, UniProt P33261); experiment: metabolism by CYP2C19 isoform; assay type: in vitro ADME; conditions: for Compound Remaining (% of compound present at t = 0 min): 5 μM
Chain of CYP2C19 (P33261 whole entry, canonical isoform): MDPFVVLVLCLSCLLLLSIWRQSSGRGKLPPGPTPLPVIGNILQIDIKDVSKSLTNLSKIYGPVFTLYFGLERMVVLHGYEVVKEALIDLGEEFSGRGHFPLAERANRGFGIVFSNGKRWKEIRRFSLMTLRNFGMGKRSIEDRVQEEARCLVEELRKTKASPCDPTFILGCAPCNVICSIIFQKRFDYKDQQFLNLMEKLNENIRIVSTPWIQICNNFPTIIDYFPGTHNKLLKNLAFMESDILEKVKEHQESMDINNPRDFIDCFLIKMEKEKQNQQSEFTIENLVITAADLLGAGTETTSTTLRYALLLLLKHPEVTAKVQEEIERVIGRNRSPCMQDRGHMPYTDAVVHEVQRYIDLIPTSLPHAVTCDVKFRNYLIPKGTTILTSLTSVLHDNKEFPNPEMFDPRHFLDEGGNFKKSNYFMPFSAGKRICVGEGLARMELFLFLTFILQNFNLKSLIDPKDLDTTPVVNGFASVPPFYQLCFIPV
Protocol: as §1

CYP3A4 = CYP3A4 (Homo sapiens, UniProt P08684); experiment: metabolism by CYP3A4 isoform; assay type: in vitro ADME; conditions: for Compound Remaining (% of compound present at t = 0 min): 5 μM
Chain of CYP3A4 (P08684 whole entry, canonical isoform): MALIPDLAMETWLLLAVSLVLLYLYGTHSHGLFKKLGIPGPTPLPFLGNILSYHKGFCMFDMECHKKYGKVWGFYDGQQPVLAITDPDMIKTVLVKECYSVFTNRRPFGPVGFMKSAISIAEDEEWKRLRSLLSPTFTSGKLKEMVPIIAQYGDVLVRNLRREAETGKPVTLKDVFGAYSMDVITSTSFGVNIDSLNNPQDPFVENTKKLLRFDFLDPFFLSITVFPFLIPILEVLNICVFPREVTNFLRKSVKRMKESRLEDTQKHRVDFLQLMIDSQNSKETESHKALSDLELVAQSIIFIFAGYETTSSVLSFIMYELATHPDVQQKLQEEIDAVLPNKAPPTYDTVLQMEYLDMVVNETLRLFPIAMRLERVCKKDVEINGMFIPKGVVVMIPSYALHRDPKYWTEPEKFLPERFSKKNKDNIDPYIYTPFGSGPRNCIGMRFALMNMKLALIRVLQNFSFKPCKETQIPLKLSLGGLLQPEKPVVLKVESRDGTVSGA
Protocol: as §1

[1] = in vivo, cited from earlier work
cytochrome P450 = experiment: microsomal stability, pooled liver microsomes, cytochrome P450 alone; assay type: in vitro ADME; conditions: 45 minute experiment
Protocol: At five time points over the course of a 45 minute experiment, the compounds were analyzed by liquid chromatography and tandem mass spectrometry (LC-MS/MS). Intrinsic clearance values (CLint) with standard error (SE CLint) and metabolic half-life (t1/2) were calculated and are indicated in Table 9, below.

Chain of CYP2D6 (P10635 whole entry, canonical isoform): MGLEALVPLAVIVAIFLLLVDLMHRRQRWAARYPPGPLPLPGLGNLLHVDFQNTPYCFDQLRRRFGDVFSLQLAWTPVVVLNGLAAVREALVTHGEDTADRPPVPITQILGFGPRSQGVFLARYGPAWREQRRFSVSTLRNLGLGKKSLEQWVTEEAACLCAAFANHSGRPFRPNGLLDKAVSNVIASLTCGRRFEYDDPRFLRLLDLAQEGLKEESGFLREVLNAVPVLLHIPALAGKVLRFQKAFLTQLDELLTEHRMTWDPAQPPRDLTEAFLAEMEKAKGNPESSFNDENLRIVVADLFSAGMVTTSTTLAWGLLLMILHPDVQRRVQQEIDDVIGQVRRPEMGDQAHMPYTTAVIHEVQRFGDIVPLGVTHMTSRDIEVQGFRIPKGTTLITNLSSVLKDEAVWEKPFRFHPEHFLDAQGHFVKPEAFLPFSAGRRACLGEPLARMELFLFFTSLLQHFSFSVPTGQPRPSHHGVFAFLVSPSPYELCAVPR

CO/N=C1/C[C@@H](CO)N(C(=O)c2ccc(-c3ccccc3C)cc2)C1 [Compound (II), (3Z,5S)-5-(hydroxymethyl)-1-[(2′-methyl-1,1′-biphenyl-4-yl)carbonyl]pyrrolidin-3-one O-methyloxime]
Compound Remaining (% of compound present at t = 0 min) (CYP2D6; 0 min): 100% | Compound Remaining (% of compound present at t = 0 min) (CYP2D6; 5 min): 80.3% | Compound Remaining (% of compound present at t = 0 min) (CYP2D6; 15 min): 50.5% | Compound Remaining (% of compound present at t = 0 min) (CYP2D6; 30 min): 22.5% | Compound Remaining (% of compound present at t = 0 min) (CYP2D6; 45 min): 12.2% | half-life at 5 μM (CYP2D6; human): 0.242 h | Compound Remaining (% of compound present at t = 0 min) (CYP2C19; 0 min): 100% | Compound Remaining (% of compound present at t = 0 min) (CYP2C19; 5 min): 93.7% | Compound Remaining (% of compound present at t = 0 min) (CYP2C19; 15 min): 79.1% | Compound Remaining (% of compound present at t = 0 min) (CYP2C19; 30 min): 67.8% | Compound Remaining (% of compound present at t = 0 min) (CYP2C19; 45 min): 59.9% | half-life at 5 μM (CYP2C19; human): 1.01 h | Compound Remaining (% of compound present at t = 0 min) (CYP3A4; 0 min): 100% | Compound Remaining (% of compound present at t = 0 min) (CYP3A4; 5 min): 86.5% | Compound Remaining (% of compound present at t = 0 min) (CYP3A4; 15 min): 75.9% | Compound Remaining (% of compound present at t = 0 min) (CYP3A4; 30 min): 67.3% | Compound Remaining (% of compound present at t = 0 min) (CYP3A4; 45 min): 63.9% | half-life at 5 μM (CYP3A4; human): 1.23 h | oral bioavailability ([1]; po): 42-100% | serum half-life [1]: 11 to 12 h | tmax [1]: 1 to 4 h | microsomal CLint at 3 μM (cytochrome P450; read-out: CLint, Metabolic Stability - CYP): 11.6 µL/min/mg | half-life at 3 μM (cytochrome P450; read-out: t1/2, Metabolic Stability - CYP): 2 h
